Data taken from publication PMC4502414, “Transforming berberine into its intestine-absorbable form by the gut microbiota” (Scientific Reports, 2015).

Columns and labels:
[1] = system: rat small intestinal bacteria (RSIB); assay: Conversion of BBR into dhBBR by rat small intestinal bacteria in vitro; assay type: in vitro ADME; conditions: BBR incubated with rat small intestine bacteria
Method: The small intestine contents from ten sacrificed SD rats were obtained and mixed with anaerobic medium to prepare the cultures. BBR was added into the incubation at final concentrations of 100, 50, and 10 μg/ml, and the reaction was continued for 6, 12 or 24 h. Levels of BBR, dhBBR and other BBR metabolites were determinedusing the LC-MS/MS 8040 and GC-MS instruments according to the above-mentioned method.

[2] = Excretion of BBR, dhBBR and other BBR metabolites in rat feces, urine and bile after oral BBR; assay type: in vivo, SD rats
Method: For the analysis of the in vivo intestinal metabolites of BBR, six SD rats were orally treated with BBR (200 mg/kg), and their feces were collected 0, 6, 12, 24, 36, 48, and 72 h after treatment. The method used for the preparation of the feces was reported previously. An aliquot of 1 μl was injected into the GC-MS instrument. The level of dhBBR in feces was measured and calculated based on the standard curve obtained with the in vitro intestinal bacteria incubation mixture.

[3] = Plasma pharmacokinetics after oral dhBBR or BBR in rats; assay type: in vivo, SD rats; conditions: oral dhBBR 200 mg/kg
Method: The plasma (100 μl) was precipitated with 100 μl of acetonitrile after addition of 10 μl of the internal standard. BBR served as a control in the study. The plasma concentrations of BBR and dhBBR were determined using LC-MS/MS 8040 and LC-MS/MS 8050.

Which results are given for COc1ccc2c(c1OC)CN1CCc3cc4c(cc3C1=C2)OCO4 [dhBBR, dihydroberberine]?
incubation time until dhBBR became detectable [1]: ≤ 6 h; time of peak amount of dhBBR in feces ([2]; after oral BBR): 12 to 24 h; detection of dhBBR in rat excretions ([2]; oral BBR, 72-h period, urine, bile and feces): detected only in feces; AUC(0-t) ([3]; SD, rat, plasma, po, 200 mg/kg, Fig. 3b curve 2, read-out: AUC(0-t) of dhBBR in plasma): 48.9 ng·h/mL; Cmax ([3]; SD, rat, plasma, po, 200 mg/kg, Fig. 3b curve 2, read-out: Cmax of dhBBR in plasma): 10.2 ng/mL; dhBBR level in plasma [3]: less than 10 ng/ml
